Test results published in PubChem BioAssay AID328 (DTP/NCI, 2004).
Toxic doses and inconclusive results are not listed. Positions of bridges follow the written chain, without caps; N, C: chain ends. Non-standard residues stand in square brackets, D forms with d. Residues, ends and D or L forms follow the SMILES beside them. Chains are numbered I, II in the order given. *: point of attachment. Quinoxaline2carbonyl = O=C(c1cnc2ccccc2n1)*; NMeV = CN[CH](C(=O)O)C(C)C; NMeC = CN[CH](CS)C(=O)O

System: BDF1 mice, P388 leukemia ip, median survival T/C
Experiment: NCI In Vivo Anticancer Drug Screen. Data for tumor model P388 Leukemia (intraperitoneal) in B6D2F1 (BDF1) mice
Conditions: endpoint: median survival time, higher = longer survival
In short: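 Reported as T/C, where T is the survival measurement in dosed animals and C the same measurement in vehicle controls.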

[1] = dose: 50.0 mg/kg/injection, schedule: Q01DX009 (ip), vehicle: saline
[2] = dose: 100.0 mg/kg/injection, schedule: Q01DX009 (ip), vehicle: saline
[3] = dose: 200.0 mg/kg/injection, schedule: Q01DX009 (ip), vehicle: saline
[4] = dose: 400.0 mg/kg/injection, schedule: Q01DX009 (ip), vehicle: saline
[5] = dose: 100.0 mg/kg/injection, schedule: Q01DX009 (ip), vehicle: saline with Tween-80
[6] = dose: 100.0 mg/kg/injection, schedule: Q04DX003 (ip), vehicle: saline with Tween-80
[7] = dose: 200.0 mg/kg/injection, schedule: Q04DX003 (ip), vehicle: saline with Tween-80
[8] = dose: 400.0 mg/kg/injection, schedule: Q04DX003 (ip), vehicle: saline with Tween-80

`Cc1nn(C2CC(O)C(O)C(CO)O2)c(=O)[nH]c1=O` (configuration not stated) was tested, and the T/C [1] was 98 % of control, the T/C [2] was 99 % of control and the T/C [3] was 97 % of control. For the same molecule, the T/C [4] was 106 % of control.

`CCOC(=O)C(CC(C)C)NC(=O)C(Cc1ccc(N(CCCl)CCCl)cc1)NC(C)=O` (configuration not stated) was tested, and the T/C (dose: 1.0 mg/kg/injection, schedule: Q01DX009 (ip), vehicle: other) was 104 % of control, the T/C (dose: 2.0 mg/kg/injection, schedule: Q01DX009 (ip), vehicle: other) was 109 % of control and the T/C (dose: 8.0 mg/kg/injection, schedule: Q01DX009 (ip), vehicle: other) was 163 % of control. The T/C (dose: 32.0 mg/kg/injection, schedule: Q01DX009 (ip), vehicle: other) was 163 % of control, the T/C (dose: 64.0 mg/kg/injection, schedule: Q01DX009 (ip), vehicle: other) was 172 % of control and the T/C (dose: 128.0 mg/kg/injection, schedule: Q01DX009 (ip), vehicle: other) was 195 % of control. The T/C (dose: 256.0 mg/kg/injection, schedule: Q01DX009 (ip), vehicle: other) was 89 % of control.

`O=[N+]([O-])c1cc([N+](=O)[O-])c2ccccc2c1NS(=O)(=O)c1ccc(Cl)c(Cl)c1` was tested, and the T/C (dose: 50.0 mg/kg/injection, schedule: Q01DX009 (ip), vehicle: saline with Tween-80) was 92 % of control and the T/C [5] was 111 % of control.

In the case of `CC(Br)C(=O)NC(Cc1ccccc1)C(=O)O` (configuration not stated), the T/C [2] was 95 % of control, the T/C (dose: 100.0 mg/kg/injection, schedule: Q04DX003 (ip), vehicle: alcohol) was 100 % of control and the T/C [6] was 118 % of control. The T/C [3] was 100 % of control, the T/C (dose: 200.0 mg/kg/injection, schedule: Q04DX003 (ip), vehicle: alcohol) was 104 % of control and the T/C [7] was 100 % of control. The T/C [4] was 104 % of control, the T/C (dose: 400.0 mg/kg/injection, schedule: Q04DX003 (ip), vehicle: alcohol) was 109 % of control and the T/C [8] was 109 % of control.

`Nc1nc(=S)c2ncn(C3OC(CO)CC3O)c2[nH]1` (configuration not stated) was tested, and the T/C [2] was 95 % of control.

`CC(=O)N=C1CCCC1C#N` (configuration not stated) was tested, and the T/C (dose: 100.0 mg/kg/injection, schedule: Q01DX001 (ip), vehicle: Klucel (hydroxypropylcellulose) (HPC)) was 104 % of control, the T/C (dose: 200.0 mg/kg/injection, schedule: Q01DX001 (ip), vehicle: Klucel (hydroxypropylcellulose) (HPC)) was 100 % of control and the T/C (dose: 400.0 mg/kg/injection, schedule: Q01DX001 (ip), vehicle: Klucel (hydroxypropylcellulose) (HPC)) was 95 % of control.

In the case of `O=c1[nH][nH]c(=O)n1O`, the T/C [3] was 100 % of control and the T/C [4] was 95 % of control.

With `CCOC(=O)C(CCC(=O)OC)C1=NC(C)(C)CC(C)O1` (configuration not stated) the T/C (dose: 50.0 mg/kg/injection, schedule: Q01DX001 (ip), vehicle: saline sonified) was 104 % of control, the T/C (dose: 100.0 mg/kg/injection, schedule: Q01DX001 (ip), vehicle: saline sonified) was 100 % of control and the T/C (dose: 200.0 mg/kg/injection, schedule: Q01DX001 (ip), vehicle: saline sonified) was 100 % of control.

`N#C/C(=C/Cc1ccccc1)Nc1ccccc1` was tested, and the T/C [5] was 100 % of control, the T/C [6] was 113 % of control and the T/C (dose: 200.0 mg/kg/injection, schedule: Q01DX009 (ip), vehicle: saline with Tween-80) was 115 % of control. The T/C [7] was 118 % of control, the T/C (dose: 400.0 mg/kg/injection, schedule: Q01DX009 (ip), vehicle: saline with Tween-80) was 115 % of control and the T/C [8] was 104 % of control.

With `O=C(O)c1cc(-c2ccccc2)[nH]c1-c1ccccc1` the T/C [1] was 90 % of control.

With `CC1NC(=O)C(NC(=O)c2cnc3ccccc3n2)COC(=O)C(C(C)C)N(C)C(=O)C2CSSCC(C(=O)N(C)C(C(C)C)C(=O)OCC(NC(=O)c3cnc4ccccc4n3)C(=O)NC(C)C(=O)N2C)N(C)C1=O` (configuration not stated) (I: Quinoxaline2carbonyl-SA[NMeC][NMeV] / II: Quinoxaline2carbonyl-SA[NMeC][NMeV]; ester I:1-II:C, I:C-II:1; disulfide I:3-II:3; configuration not given here) the T/C (dose: 11.0 micrograms/kg/injection, schedule: Q01DX009 (ip), vehicle: saline) was 124 % of control, the T/C (dose: 22.5 micrograms/kg/injection, schedule: Q01DX009 (ip), vehicle: saline) was 115 % of control and the T/C (dose: 45.0 micrograms/kg/injection, schedule: Q01DX009 (ip), vehicle: saline) was 113 % of control. For the same molecule, the T/C (dose: 90.0 micrograms/kg/injection, schedule: Q01DX009 (ip), vehicle: saline) was 200 % of control.
